From ChEMBL document CHEMBL1165924 (Bioorg Med Chem, 2010)

What was measured:
[1] = target: T1, Neuraminidase (Influenza A virus, UniProt B4URF0); assay: Inhibition of Influenza A virus A/WSN/1933(H1N1) neuraminidase
[2] = Antiviral activity against Influenza A virus (A/WSN/1933(H1N1)) infected in MDCK cells assessed as inhibition of virus-induced cytopathicity; type: functional, organism-based
[3] = system: Influenza A virus; assay: Antiviral activity against Influenza A virus (A/Singapore/1/1957 (H2N2)) infected in MDCK cells assessed as inhibition of virus-induced plaque formation; type: functional, organism-based
[4] = target: T1, Neuraminidase
[5] = target: T1, Neuraminidase; assay: Inhibition of Influenza A virus A/Vienna/83/58(H2N2) neuraminidase

T1 sequence (B4URF0 whole entry): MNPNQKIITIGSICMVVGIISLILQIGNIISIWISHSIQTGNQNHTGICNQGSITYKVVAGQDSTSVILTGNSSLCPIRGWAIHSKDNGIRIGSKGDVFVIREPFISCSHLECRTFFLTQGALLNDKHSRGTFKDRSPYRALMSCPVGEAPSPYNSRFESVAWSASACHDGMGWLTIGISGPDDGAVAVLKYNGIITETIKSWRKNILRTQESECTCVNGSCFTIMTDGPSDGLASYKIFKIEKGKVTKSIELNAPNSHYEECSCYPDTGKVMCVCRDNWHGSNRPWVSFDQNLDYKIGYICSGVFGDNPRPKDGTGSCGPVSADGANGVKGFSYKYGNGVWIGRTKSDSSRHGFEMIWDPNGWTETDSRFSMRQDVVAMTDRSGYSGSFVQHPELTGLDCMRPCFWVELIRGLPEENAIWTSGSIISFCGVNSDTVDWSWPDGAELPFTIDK

SMILES	IC50 [1]	EC50 [2]	also measured
CC(=O)N[C@H]1[C@H]([C@H](O)[C@H](O)CO)OC(C(=O)O)=C[C@@H]1NCCCCN	> 200 µM		
CC(=O)N[C@H]1[C@H]([C@H](O)[C@H](O)CO)OC(C(=O)O)=C[C@@H]1NC(=N)NCCCCN	> 200 µM		
CC(=O)N[C@H]1[C@H]([C@H](O)[C@H](O)CO)OC(C(=O)O)=C[C@@H]1NCCCN	> 200 µM		
CC(=O)N[C@H]1[C@H]([C@H](O)[C@H](O)CO)OC(C(=O)O)=C[C@@H]1N(CCCN)C(=N)N	> 200 µM		
CC(=O)N[C@H]1[C@H]([C@H](O)[C@H](O)CO)OC(C(=O)O)=C[C@@H]1NCCCC(=O)O	70 µM		
CC(=O)N[C@H]1[C@H]([C@H](O)[C@H](O)CO)OC(C(=O)O)=C[C@@H]1NC1=NCCN1	> 200 µM		
CC(=O)N[C@H]1[C@H]([C@H](O)[C@H](O)CO)OC(C(=O)O)=C[C@@H]1N(CCCCN)C(=N)N	> 200 µM		
CC(=O)N[C@H]1[C@H]([C@H](O)[C@H](O)CO)OC(C(=O)O)=C[C@@H]1N(CCCC(=O)O)C(=N)N	7.12 µM	52 µM	
CC(=O)N[C@H]1[C@H]([C@H](O)[C@H](O)CO)OC(C(=O)O)=C[C@@H]1N=C(N)NCCCN	> 200 µM		
CC(=O)N[C@H]1[C@H]([C@H](O)[C@H](O)CO)OC(C(=O)O)=C[C@@H]1N(CCCC(=O)N1CCN(C)CC1)C(=N)N	6.5 µM	10.7 µM	
CC(=O)N[C@H]1[C@H]([C@H](O)[C@H](O)CO)OC(C(=O)O)=C[C@@H]1N(CCCC(=O)N1CCOCC1)C(=N)N	33.3 µM	37.6 µM	
CC(=O)N[C@H]1[C@H]([C@H](O)[C@H](O)CO)OC(C(=O)O)=C[C@@H]1N(CCCC(=O)N1CCCCC1)C(=N)N	23.1 µM	45 µM	
CC(=O)N[C@H]1[C@H]([C@H](O)[C@H](O)CO)OC(C(=O)O)=C[C@@H]1N(CCCC(=O)N1CCNCC1)C(=N)N	2.15 µM	0.77 µM	
CC(=O)N[C@H]1[C@H]([C@H](O)[C@H](O)CO)OC(C(=O)O)=C[C@@H]1NCCCCC(=O)O	80 µM		
CC(=O)N[C@H]1[C@H]([C@H](O)[C@H](O)CO)OC(C(=O)O)=C[C@@H]1N			EC50 [3]: 1.5 µM; Ki [4]: 0.04 µM
CC(=O)N[C@H]1[C@H]([C@H](O)[C@H](O)CO)OC(C(=O)O)=C[C@@H]1O [NEU5AC2EN]			IC50 [5]: 190 µM
CC(=O)N[C@H]1[C@H]([C@H](O)[C@H](O)CO)OC(C(=O)O)=C[C@@H]1NC(=N)N [ZANAMIVIR]		0.013 µM	
